Structures can show the parent of a compound that is named as a salt. Where two headings read alike, the source gives them in different places.
Molecular target: T1, human AspH (His6-AspH315–758) (Homo sapiens, UniProt Q12797)
T1 construct: N-Terminally His6-tagged human AspH315–758 (His6-AspH315–758) was produced in Escherichia coli BL21 (DE3) cells; made in house; host or cells: Escherichia coli BL21 (DE3), pET-28a(+) vector
T1 sequence (Q12797 315-758): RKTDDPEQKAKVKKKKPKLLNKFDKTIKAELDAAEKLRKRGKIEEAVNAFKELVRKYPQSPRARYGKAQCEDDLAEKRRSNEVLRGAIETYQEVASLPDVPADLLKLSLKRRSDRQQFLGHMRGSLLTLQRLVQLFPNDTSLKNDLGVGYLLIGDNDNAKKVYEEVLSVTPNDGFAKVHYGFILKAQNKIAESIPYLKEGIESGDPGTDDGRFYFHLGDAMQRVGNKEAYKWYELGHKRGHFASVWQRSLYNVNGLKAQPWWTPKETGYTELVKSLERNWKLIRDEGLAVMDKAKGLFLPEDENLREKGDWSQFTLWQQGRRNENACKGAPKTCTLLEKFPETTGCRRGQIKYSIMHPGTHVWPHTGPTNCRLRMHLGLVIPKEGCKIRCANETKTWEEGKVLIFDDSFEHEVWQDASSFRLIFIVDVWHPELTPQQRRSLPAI
Assay: SPE-MS AspH inhibition assay (hFX-CP101-119 substrate hydroxylation)
Type: biochemical

[1] = AspH-inhibitor screening, 384-well Plate 1
[2] = AspH-inhibitor screening, 384-well Plate 1, substrate conversion
[3] = AspH-inhibitor screening, Plate 1-duplicate
[4] = AspH-inhibitor screening, Plate 1-duplicate, substrate conversion

SMILES | Plate 1 (% inhibition) [1] [%] | Plate 1 (% conversion) [2] [%] | Plate 1-duplicate (% inhibition) [3] [%] | Plate 1-duplicate (% conversion) [4] [%] | Plate 1 (% conversion) [%] | Plate 1 (% inhibition) [%] | Plate 1-duplicate (% conversion) [%] | Plate 1-duplicate (% inhibition) [%]
CC(C)n1nc(-c2ccc3oc(N)nc3c2)c2c(N)ncnc21 [INK128] | 4.97 | 47.46 | 4.58 | 49.77 | – | – | – | –
CC(=O)[C@]1(O)Cc2c(O)c3c(c(O)c2[C@@H](O[C@H]2C[C@H](N)[C@H](O)[C@H](C)O2)C1)C(=O)c1ccccc1C3=O [Idarubicin HCl] | 6.62 | 46.69 | 5.28 | 49.42 | – | – | – | –
CC[C@H](Nc1ncnc2[nH]cnc12)c1nc2cccc(F)c2c(=O)n1-c1ccccc1 [Idelalisib] | 9.55 | 45.34 | 7.71 | 48.22 | – | – | – | –
O=P1(NCCCl)OCCCN1CCCl (stereo not shown) [Ifosfamide] | 7.87 | 46.12 | 4.50 | 49.81 | – | – | – | –
CC(C)Cn1cnc2c(N)nc3ccccc3c21 [Imiquimod] | 3.84 | 47.98 | 5.27 | 49.43 | – | – | – | –
O=C(Nc1ccncc1)C(=O)c1cn(Cc2ccc(Cl)cc2)c2ccccc12 [Indibulin] | 45.36 | 28.80 | 2.65 | 50.73 | – | – | – | –
NC(=O)c1ccc(I)c([N+](=O)[O-])c1 [Iniparib (BSI-201, IND-71677)] | 6.32 | 46.83 | 5.00 | 49.56 | – | – | – | –
CCc1c2c(nc3ccc(OC(=O)N4CCC(N5CCCCC5)CC4)cc13)-c1cc3c(c(=O)n1C2)COC(=O)[C@]3(O)CC.Cl [Irinotecan hydrochloride] | -1.48 | 50.43 | 0.58 | 51.76 | – | – | – | –
CCc1c2c(nc3ccc(OC(=O)N4CCC(N5CCCCC5)CC4)cc13)-c1cc3c(c(=O)n1C2)COC(=O)[C@]3(O)CC [Irinotecan] | 1.66 | 48.98 | -3.53 | 53.79 | – | – | – | –
C/C(=C\c1csc(C)n1)[C@@H]1C[C@@H]2O[C@]2(C)CCC[C@H](C)[C@H](O)[C@@H](C)C(=O)C(C)(C)[C@@H](O)CC(=O)N1 [Ixabepilone] | -1.86 | 50.61 | -1.35 | 52.71 | – | – | – | –
CC(C)C[C@H](NC(=O)CNC(=O)c1cc(Cl)ccc1Cl)B1OC(=O)C(CC(=O)O)(CC(=O)O)O1 [Ixazomib citrate] | 72.42 | 16.31 | 72.94 | 15.87 | – | – | – | –
c1ccc2c(CCNc3ccc(Nc4ccncc4)cc3)c[nH]c2c1 [JNJ 26854165 (Serdemetan)] | 32.19 | 34.89 | 30.40 | 36.96 | – | – | – | –
Cn1cc(CNCC2CCN(c3ncc(C(=O)NO)cn3)CC2)c2ccccc21 [JNJ-26481585_Quisinostat] | -7.35 | 53.15 | -6.18 | 55.11 | – | – | – | –
Cc1cccc(-c2nn3c(c2-c2ccnc4ccc(C(N)=O)cc24)CCC3)n1 [LY2157299] | 5.18 | 47.36 | 4.86 | 49.63 | – | – | – | –
CC(C)(C)Cn1c(N)nc2ccc(-c3[nH]c(C(C)(C)C)nc3-c3ccc(F)cc3)nc21 [LY2228820 (CP868569)] | -13.39 | 55.93 | -13.16 | 58.57 | – | – | – | –
Cc1cnc(NC(=O)Nc2cc(Br)c(C)cc2OC[C@@H]2CNCCO2)cn1 [LY2603618_Rabusertib] | -51.46 | 73.51 | -47.27 | 75.48 | – | – | – | –
Cc1cc(Nc2cc(CN3CCOCC3)c3nc(C)c(Cc4ccc(Cl)cc4F)n3n2)n[nH]1 [LY2784544_Gandotinib] | -63.83 | 79.23 | -64.31 | 83.93 | – | – | – | –
CN(C)C[C@@H]1CCn2cc(c3ccccc32)C2=C(C(=O)NC2=O)c2cn(c3ccccc23)CCO1.CS(=O)(=O)O [LY 333531 mesylate_Ruboxistaurin] | 10.44 | 44.93 | -5.64 | 54.84 | – | – | – | –
CS(=O)(=O)CCNCc1ccc(-c2ccc3ncnc(Nc4ccc(OCc5cccc(F)c5)c(Cl)c4)c3c2)o1.Cc1ccc(S(=O)(=O)O)cc1.Cc1ccc(S(=O)(=O)O)cc1 [Lapatinib, di-p-toluenesulfonate salt] | – | – | – | – | 63.38 | -29.52 | 62.65 | -21.39
CS(=O)(=O)CCNCc1ccc(-c2ccc3ncnc(Nc4ccc(OCc5cccc(F)c5)c(Cl)c4)c3c2)o1 [Lapatinib] | -31.93 | 64.49 | -19.57 | 61.75 | – | – | – | –
Oc1ccc2c(c1)CC[C@H](c1ccccc1)[C@@H]2c1ccc(OCCN2CCCC2)cc1 [Lasofoxifene] | 4.47 | 47.69 | -1.73 | 52.90 | – | – | – | –
Nc1cccc2c1CN(C1CCC(=O)NC1=O)C2=O (stereo not shown) [Lenalidomide] | – | 47.43 | 4.54 | 49.79 | – | – | – | –
COc1cc2nccc(Oc3ccc(NC(=O)NC4CC4)c(Cl)c3)c2cc1C(N)=O [Lenvatinib] | -19.98 | 58.98 | -15.77 | 59.86 | – | – | – | –
C[C@]12O[C@H](C[C@]1(O)CO)n1c3ccccc3c3c4c(c5c6ccccc6n2c5c31)CNC4=O [Lestaurtinib] | 20.36 | 40.35 | 16.08 | 44.07 | – | – | – | –
N#Cc1ccc(C(c2ccc(C#N)cc2)n2cncn2)cc1 [Letrozole] | 6.85 | 46.59 | 3.67 | 50.22 | – | – | – | –
Nc1nc(OCc2cc(Br)cs2)c2[nH]cnc2n1 [Lomeguatrib] | 5.31 | 47.30 | 8.11 | 48.02 | – | – | – | –
O=NN(CCCl)C(=O)NC1CCCCC1 [Lomustine] | 9.88 | 45.19 | 8.61 | 47.77 | – | – | – | –
CNC(=O)c1ccc(N2C(=S)N(c3ccc(C#N)c(C(F)(F)F)c3)C(=O)C2(C)C)cc1F [MDV3100_Enzaluamide] | -7.19 | 53.07 | -12.48 | 58.23 | – | – | – | –
Nc1ccccc1NC(=O)c1ccc(CNc2nccc(-c3cccnc3)n2)cc1 [MGCD0103_Mocetinostat] | 4.45 | 47.69 | 6.61 | 48.76 | – | – | – | –
